Earlier results in patent publication US20110153027A1, “Drug Delivery System” (Vysera Biomedical Limited, priority 2009, published 2011).

Tests used:
[1] = minimum effective concentration
[2] = compared with cyclosporine

| SMILES | MEC [1] | water solubility [2] |
| --- | --- | --- |
| O=C(O)c1cn(C2CC2)c2cc(N3CCNCC3)c(F)cc2c1=O [Ciprofloxacin] | 0.2 µg/mL | – |
| Cc1ncc([N+](=O)[O-])n1CCO [Metronidazole] | 8 µg/mL | higher water solubility than cyclosporine |
| Sc1ncnc2nc[nH]c12 [6-mercaptopurine] | 1 µg/mL | – |
| Cn1cnc([N+](=O)[O-])c1Sc1ncnc2nc[nH]c12 [Azathioprine] | 1 µg/mL | – |
